Data published in the supplement of paper PMC11061612.

Assays:
Assay in all cases: Bliss excess, mean over the matrix (fraction); higher = more synergy
[1] = test system: NKM-1 (Acute Myeloid Leukemia)
Outline: (§1)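 Cell lines grown in DMEM/F12 or RPMI with 10% FBS were plated in 1536-well plates and held 24 hours at 37°C, 5% CO2 before 72 hours of exposure to two-drug dose matrices, with DMSO typically at 0.2%. CellTiter-Glo 2.0 luminescence gave viability, which was converted to inhibition. Vehicle wells were set to 0 and blank wells to 1. Combination Emax is the second-highest inhibition in the matrix, and Bliss excess is the observed combination effect minus the expected EA + EB − EA·EB, where EA and EB are the single-agent effects.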

HuO-3N1 (Osteosarcoma) = test system: HuO-3N1 (Osteosarcoma)
Outline: as §1

[2] = test system: NCI-H1155 (Non-Small Cell Lung Carcinoma)
Outline: as §1

[3] = test system: PANC-02-03 (Pancreatic Carcinoma)
Outline: as §1

[4] = test system: Caov-3 (Ovarian Carcinoma)
Outline: as §1

[5] = test system: RPMI-8866 (Chronic Myelogenous Leukemia)
Outline: as §1

[6] = test system: AsPC-1 (Pancreatic Carcinoma)
Outline: as §1

[7] = test system: RMG-I (Ovarian Carcinoma)
Outline: as §1

[8] = test system: JHH-1 (Hepatocellular Carcinoma)
Outline: as §1

[9] = test system: NCI-H1755 (Lung Adenocarcinoma)
Outline: as §1

[10] = test system: OV-90 (Ovarian Carcinoma)
Outline: as §1

[11] = test system: HSC-3 (Oral Cavity Carcinoma)
Outline: as §1

[12] = test system: SK-MM-2 (Plasma Cell Myeloma)
Outline: as §1

KYM-1 (Rhabdomyosarcoma) = test system: KYM-1 (Rhabdomyosarcoma)
Outline: as §1

[13] = test system: SNU-175 (Colorectal Carcinoma)
Outline: as §1

[14] = test system: KYSE-70 (Esophageal Squamous Cell Carcinoma)
Outline: as §1

[15] = test system: SJRH30 (Rhabdomyosarcoma)
Outline: as §1

[16] = test system: OVTOKO (Ovarian Carcinoma)
Outline: as §1

[17] = test system: AN3-CA (Endometrial Carcinoma)
Outline: as §1

RT4 (Bladder Carcinoma) = test system: RT4 (Bladder Carcinoma)
Outline: as §1

SMILES	Bliss excess [1]	Bliss excess (HuO-3N1 (Osteosarcoma))	Bliss excess [2]	Bliss excess [3]	Bliss excess [4]	Bliss excess [5]	Bliss excess [6]	Bliss excess [7]	Bliss excess [8]	Bliss excess [9]	Bliss excess [10]	Bliss excess [11]	Bliss excess [12]	Bliss excess (KYM-1 (Rhabdomyosarcoma))	Bliss excess [13]	Bliss excess [14]	Bliss excess [15]	Bliss excess [16]	Bliss excess [17]	Bliss excess (RT4 (Bladder Carcinoma))
CN(CCO)CC[C@H](CSc1ccccc1)Nc1ccc(S(=O)(=O)NC(=O)c2ccc(N3CCC([C@@H](O)c4ccccc4-c4ccc(Cl)cc4)CC3)cc2)cc1S(=O)(=O)C(F)(F)F [AZD4320] + C[C@@H](Nc1cc(F)cc(F)c1)c1cc(C(=O)N(C)C)cc2c(=O)cc(N3CCOCC3)oc12 [AZD8186] (first compound max 1 µM, 7x7, partner max 3 µM)	0.0224	0.0557	0.075	-0.0465	-0.019	0.0244	-0.0141	-0.0066	-0.0258	0.012	-0.0073	0.0482	0.0197	0.0193	-0.0233	0.0092	0.0718	0.0019	-0.0339	0.032
Cc1c2c(nn1C)CSCc1cc(n(C)n1)CSc1cc(c3ccccc3c1)OCCCc1c(C(=O)O)n(C)c3c-2c(Cl)ccc13 [AZD5991] + Cc1cc2ncnn2cc1Nc1ncc2c(n1)n(C1CCOCC1)c(=O)n2C [AZD7648] (first compound max 1 µM, 7x7, partner max 10 µM)	-0.0265	-0.0229	-0.017	-0.0151	-0.0436	-0.0497	-0.0517	-0.0389	-0.0585	0.0189	-0.039	-0.0448	0.0087	0.0136	-0.0125	0.0024	-0.0214	-0.0238	-0.0411	-0.0301
CN(C)CCCOc1ccc(-c2ccc3ncc4c(c3c2)n(C2CCOCC2)c(=O)n4C)cn1 [AZD0156] + C[C@@H]1COCCN1C2=NC(=NC(=C2)C3(CC3)[S@](=N)(=O)C)C4=C5C=CNC5=NC=C4 [AZD6738] (first compound max 1 µM, 7x7, partner max 10 µM)	-0.11	-0.0046	-0.0289	-0.0412	-0.026	-0.0014	-0.0184	-0.0095	0.0102	-0.0249	-0.0323	-0.0032	-0.0524	-0.0102	0.0006	0.0033	0.0408	0.0039	-0.0226	-0.0408
CCN(CCO)CCCOc1ccc2c(Nc3cc(CC(=O)Nc4cccc(F)c4)[nH]n3)ncnc2c1 [AZD2811] + C[C@@H]1COCCN1C2=NC(=NC(=C2)C3(CC3)[S@](=N)(=O)C)C4=C5C=CNC5=NC=C4 [AZD6738] (first compound max 1 µM, 7x7, partner max 10 µM)	0.0425	-0.0218	-0.0099	-0.101	-0.0747	-0.0271	-0.0164	-0.0734	-0.0574	-0.0621	-0.0772	-0.0195	-0.0732	-0.0214	-0.07	-0.0383	-0.0079	-0.0305	-0.0315	-0.0318
Cc1c2c(nn1C)CSCc1cc(n(C)n1)CSc1cc(c3ccccc3c1)OCCCc1c(C(=O)O)n(C)c3c-2c(Cl)ccc13 [AZD5991] + CN(C)CCCOc1ccc(-c2ccc3ncc4c(c3c2)n(C2CCOCC2)c(=O)n4C)cn1 [AZD0156] (first compound max 1 µM, 7x7, partner max 1 µM)	-0.152	-0.0067	0.0521	-0.0241	0.0036	-0.026	-0.0137	0.0092	0.0048	-0.0214	-0.0068	0.0527	0.0254	0.0046	-0.0515	0.0286	0.0026	0.0042	-0.0338	0.0149
CN(CCO)CC[C@H](CSc1ccccc1)Nc1ccc(S(=O)(=O)NC(=O)c2ccc(N3CCC([C@@H](O)c4ccccc4-c4ccc(Cl)cc4)CC3)cc2)cc1S(=O)(=O)C(F)(F)F [AZD4320] + C1CN(CCC1(C(=O)N[C@@H](CCO)C2=CC=C(C=C2)Cl)N)C3=NC=NC4=C3C=CN4 [Capivasertib] (first compound max 1 µM, 7x7, partner max 3 µM)	0.0099	-0.0109	0.0147	-0.0617	-0.0309	-0.0553	-0.0665	-0.0527	-0.149	-0.0221	-0.0635	-0.037	-0.0077	-0.021	-0.0205	-0.0273	0.0085	-0.0381	-0.0186	-0.0716
CC1(C)CCC(CN2CCN(c3ccc(C(=O)NS(=O)(=O)c4ccc(NCC5CCOCC5)c([N+](=O)[O-])c4)c(Oc4cnc5[nH]ccc5c4)c3)CC2)=C(c2ccc(Cl)cc2)C1 [Venetoclax] + C[C@@H](Nc1cc(F)cc(F)c1)c1cc(C(=O)N(C)C)cc2c(=O)cc(N3CCOCC3)oc12 [AZD8186] (first compound max 1 µM, 7x7, partner max 3 µM)	0.0937	0.0158	-0.026	-0.0527	-0.0548	0.0151	-0.0817	-0.0274	-0.0413	0.0229	-0.0441	-0.0286	0.024	-0.0138	-0.0201	-0.0239	-0.0248	-0.0535	-0.0453	-0.0208
CN(CCO)CC[C@H](CSc1ccccc1)Nc1ccc(S(=O)(=O)NC(=O)c2ccc(N3CCC([C@@H](O)c4ccccc4-c4ccc(Cl)cc4)CC3)cc2)cc1S(=O)(=O)C(F)(F)F [AZD4320] + C=CCn1c(=O)c2cnc(Nc3ccc(N4CCN(C)CC4)cc3)nc2n1-c1cccc(C(C)(C)O)n1 [AZD1775] (first compound max 1 µM, partner max 1 µM)	0.035	-0.0135	0.0675	0.0045	0.0779	0.0402	0.047	0.0664	0.136	-0.0201	0.0909	-0.0083	0.0011	0.0515	-0.0371	-0.0011	0.0076	0.0002	-0.0004	0.0755
C[C@@H]1COCCN1c1cc(C2([S@](C)(=N)=O)CC2)nc(-c2ccnc3[nH]ccc23)n1 [AZD6738] + O=C(c1cc(Cc2n[nH]c(=O)c3ccccc23)ccc1F)N1CCN(C(=O)C2CC2)CC1 [Olaparib] (first compound max 10 µM, 7x7, partner max 10 µM)	-0.0366	-0.0071	0.0374	0.0287	-0.0231	-0.0143	-0.027	0.0255	-0.0206	-0.0131	0.0053	0.0043	-0.0084	0.0088	0.0311	0.021	-0.0205	0.0182	0.0208	0.0357
CN(CCO)CC[C@H](CSc1ccccc1)Nc1ccc(S(=O)(=O)NC(=O)c2ccc(N3CCC([C@@H](O)c4ccccc4-c4ccc(Cl)cc4)CC3)cc2)cc1S(=O)(=O)C(F)(F)F [AZD4320] + CN(C)CCCOc1ccc(-c2ccc3ncc4c(c3c2)n(C2CCOCC2)c(=O)n4C)cn1 [AZD0156] (first compound max 1 µM, 7x7, partner max 1 µM)	-0.0871	-0.0021	-0.0105	-0.0553	-0.0198	-0.0756	-0.0506	-0.048	-0.0513	-0.0164	-0.0141	-0.0532	0.0468	-0.0256	-0.0219	-0.0124	0.0144	-0.0217	-0.0153	-0.0057
CN(CCO)CC[C@H](CSc1ccccc1)Nc1ccc(S(=O)(=O)NC(=O)c2ccc(N3CCC([C@@H](O)c4ccccc4-c4ccc(Cl)cc4)CC3)cc2)cc1S(=O)(=O)C(F)(F)F [AZD4320] + C[C@@H]1COCCN1C2=NC(=NC(=C2)C3(CC3)[S@](=N)(=O)C)C4=C5C=CNC5=NC=C4 [AZD6738] (first compound max 1 µM, 7x7, partner max 10 µM)	0.0067	0.0154	0.0351	-0.0584	-0.0186	0.0527	-0.109	-0.13	-0.0234	-0.0214	-0.0354	-0.054	-0.0126	0.0286	0.0023	-0.0096	0.0213	-0.112	-0.0091	0.0064
CC1(C)CCC(CN2CCN(c3ccc(C(=O)NS(=O)(=O)c4ccc(NCC5CCOCC5)c([N+](=O)[O-])c4)c(Oc4cnc5[nH]ccc5c4)c3)CC2)=C(c2ccc(Cl)cc2)C1 [Venetoclax] + C=CCn1c(=O)c2cnc(Nc3ccc(N4CCN(C)CC4)cc3)nc2n1-c1cccc(C(C)(C)O)n1 [AZD1775] (first compound max 1 µM, partner max 1 µM)	-0.0087	-0.0172	-0.0417	-0.0699	0.0265	-0.0547	-0.0879	-0.0409	0.0213	0.054	-0.0168	-0.0216	0.102	0.0082	-0.0735	-0.0169	-0.045	-0.0903	-0.0253	0.0364
CCN(CCO)CCCOc1ccc2c(Nc3cc(CC(=O)Nc4cccc(F)c4)[nH]n3)ncnc2c1 [AZD2811] + O=C(c1cc(Cc2n[nH]c(=O)c3ccccc23)ccc1F)N1CCN(C(=O)C2CC2)CC1 [Olaparib] (first compound max 1 µM, 7x7, partner max 10 µM)	0.0342	-0.0185	0.0393	0.0133	-0.0444	0.147	-0.0273	-0.0141	0.0078	0.0146	-0.0026	0.0273	-0.0256	0.0071	-0.0141	0.0005	0.0189	-0.012	-0.0011	0.0243
Cc1cc2ncnn2cc1Nc1ncc2c(n1)n(C1CCOCC1)c(=O)n2C [AZD7648] + CCN(CCO)CCCOc1ccc2c(Nc3cc(CC(=O)Nc4cccc(F)c4)[nH]n3)ncnc2c1 [AZD2811] (first compound max 10 µM, 7x7, partner max 1 µM)	0.0545	-0.0184	0.0796	0.0163	-0.0523	-0.0233	-0.0312	0.0097	-0.0287	0.0038	-0.017	0.0012	-0.0115	0.0571	0.0136	0.0476	0.0417	-0.0011	0.0113	0.0534
